Residue numbers refer to the chain shown, from its start. Entries after “also recorded” stand apart in the source; their conditions may differ.
What was measured:
CHIP [1] = experiment: Lipid-binding assay (membrane-immobilized lipids, lipid arrays); set-up: species or system Human; details: lipid strips/PIP strips, 0.5 µg/ml wild-type chaperone-free CHIP, 1 hr at RT, anti-C-CHIP antibody
Protocol: (§1) Human recombinant full length CHIP and its truncated versions were purified from Escherichia coli BL21 cells using Glutathion Sepharose 4B (GE Healthcare). Sepharose-bound GST-CHIP was subjected to overnight treatment with PreScission protease and the released tag-free protein was collected. Size exclusion chromatography on a HiLoad Superdex 200 column (GE Healthcare) followed to ensure the purity and homogeneity of proteins. All CHIP variants were kept in HSP70 buffer (25 mM HEPES KOH pH 7.5, 150 mM KCl, 5 mM MgCl2, 5% glycerol, 1 mM DTT).
Membrane-immobilized lipids (Membrane lipid strips P-6002 and PIP strips P-6001) were purchased from Echelon Research Laboratories. The strips were incubated with blocking buffer (3% fatty acid free BSA, 0.1% (v/v) Tween-20 in PBS pH 7.5) for 1 hr at RT. 0.5 µg/ml of purified wild-type or mutant CHIP was added in blocking buffer and incubated for 1 hr at RT. Strips were washed and bound proteins were detected using anti-C-CHIP antibody. For competition experiments, ten times molar excess of C-terminal HSP70 was added to CHIP in blocking buffer.

CHIP [2] = experiment: Liposome floatation assay; type: binding, Human; details: 20% PA, 1 mM liposomes, 0.5 µM CHIP, 30 min at 37°C, pH 7.5
Protocol: as §1
(§2) Liposomes were prepared by mixing 1,2-dioleoyl-sn-glycero-3-phosphocholine (DOPC) with indicated amount (wt/wt) of either 1,2-dipalmitoyl-sn-glycero-3-phosphate (phosphatidic acid) or (wt/wt) 1,2-dipalmitoyl-sn-glycero-3-phosphoinositol-4-phosphate (PI4P) in a 1.5 ml reaction tube (Eppendorf). […] The liposome suspension was subjected to five freeze-thaw cycles in liquid nitrogen to promote unilamellar vesicle formation, aliquoted in 200 µl and pulse-sonicated for 8 s at 45% output with MS72 sonotrode (Bandelin) to create a population of homogenously sized liposomes as determined using NanoSight (Malvern Instruments). […]
1 mM liposomes and 0.5 µM CHIP were incubated in 150 µl reconstitution buffer for 30 min at 37°C. […] Resulting fractions were analyzed by SDS-PAGE and western blotting after loading dilution-corrected amount of respective fractions.

CHIP [3] = experiment: Liposome pelleting assay, effect of lipids and HSP70-C on CHIP association; type: binding, Human; details: 2 mM liposomes, 2 µM CHIP, 30 min at 37°C, N = 3
Protocol: as §1
Human C-terminal HSP70 6xHis-tagged N-terminally was purified from Escherichia coli BL21 cells using 1 ml HisTrap column (GE Healthcare). Bound protein was eluted by applying an imidazole gradient. Fractions containing the protein were subjected to size exclusion chromatography using HiLoad Superdex 200 in HSP70 buffer. His-NQO1, His-UbcH5a, His-Uev1a and His-Ubc13 were purified similarly except that PBS/1 mM DTT was used during size exclusion chromatography. Purity of recombinant protein was evaluated by SDS-PAGE and Coomassie BB G-250 (CBB) staining. Concentration of proteins was determined measuring absorbance at 280 nm and using ProtParam (ExPASy) to calculate respective extinction coefficients. Proteins were aliquoted, snap-frozen and stored at −80°C.
Liposomes were prepared by mixing 1,2-dioleoyl-sn-glycero-3-phosphocholine (DOPC) with indicated amount (wt/wt) of either 1,2-dipalmitoyl-sn-glycero-3-phosphate (phosphatidic acid) or (wt/wt) 1,2-dipalmitoyl-sn-glycero-3-phosphoinositol-4-phosphate (PI4P) in a 1.5 ml reaction tube (Eppendorf). Lipid mixtures were dried under a nitrogen stream and kept for 1 hr under vacuum. Liposomes were rehydrated in 1 ml filtered reconstitution buffer (25 mM HEPES KOH pH 7.5, 50 mM NaCl) to a concentration of 10 mM lipids. Liposomes were reconstituted by shaking at 2000 rpm for 1 hr at 50°C, followed by sonication for 1 hr at 50°C in a water bath. The liposome suspension was subjected to five freeze-thaw cycles in liquid nitrogen to promote unilamellar vesicle formation, aliquoted in 200 µl and pulse-sonicated for 8 s at 45% output with MS72 sonotrode (Bandelin) to create a population of homogenously sized liposomes as determined using NanoSight (Malvern Instruments). Sonicated liposomes were pooled, aliquoted again, snap-frozen and stored at −80°C.
2 mM liposomes were mixed with 2 µM recombinant protein in 50 µl reconstitution buffer. The suspension was incubated shaking at 450 rpm for 30 min at 37°C. Liposomes with bound protein were sedimented by ultracentrifugation at 100,000 g for 30 min at 25°C. Liposome pellet was washed with 50 µl of reconstitution buffer and sedimented again at 100,000 g for 30 min at 25°C. The pellet was resuspended in 10 µl reconstitution buffer, resolved by SDS-PAGE and analyzed by CBB staining. Images were acquired with ChemiDoc MP imaging system and quantified using Image Lab 5.0 software (both from Bio-Rad Laboratories). For competition assays, indicated amounts of C-terminal HSP70 were preincubated with 2 µM CHIP for 20 min at 37°C prior to co-sedimentation.

CHIP [4] = details: steroid detergent deoxycholate, monomerization; ref Nikolay et al., 2004; cited from earlier work
From the text: Since lipid binding can influence the activity of enzymes ([Fang et al., 2001]; [Leonard and Hurley, 2011]), we sought to assess the ubiquitylation function of CHIP upon interaction with membranes. […] First, CHIP remained dimeric and was still capable of oligomerization (Figure 4a).

recombinant CHIP = experiment: Chemical crosslinking of recombinant CHIP in vitro; type: biochemical, Human; details: sodium deoxycholate, Coomassie Blue-stained reducing SDS-PAGE
Protocol: as §1
5 µM of recombinant CHIP were crosslinked with 0.025% glutaraldehyde for 10 min at 30°C unless indicated otherwise. Crosslinking reaction was quenched with 100 mM Tris HCl pH 7.5 for 10–15 min at RT. Where indicated, HSP70 peptide at 800 μM was pre-incubated at 30°C for 20 min before adding glutaraldehyde. Crosslinking on 20% PA-containing liposomes was performed after centrifugation on the resuspended pellet. For CHIP monomerization, fresh 10% sodium deoxycholate stock solution was used. Crosslinks were analyzed with SDS-PAGE and CBB staining.

[5] = test system: NQO1 P187S mutant; ubiquitin; CHIP; experiment: In vitro ubiquitylation on liposomes; type: biochemical; details: 37°C 1 hr
Protocol: In vitro ubiquitylation was performed in 50 mM Tris HCl pH 7.5, 50 mM NaCl, 10 mM MgCl2, 2 mM DTT and 2 mM ATP. Reactions contained 100 nM UBE1 (Boston Biochem, Cambridge, MA), 2 µM either UbcH5a or Uev1A/Ubc13, 5 µM CHIP and […] ubiquitin from bovine erythrocytes (Sigma-Aldrich). 2.5 µM NQO1 P187S mutant was added as substrate where indicated. Reactions proceeded at 37°C for 1 hr and then were stopped by adding reducing SDS sample buffer and boiling samples at 95°C for 5 min. Protein modification was analyzed by SDS-PAGE and immunoblotting using antibodies against NQO1, CHIP and ubiquitin. Where indicated, CHIP pelleted with 20% PA-containing liposomes was used instead of soluble protein.

[6] = Liposome pelleting assay, binding of CHIP and truncated variants to liposomes; details: 20% PA- or 5% PI4P-containing DOPC liposomes, 2 mM liposomes, 2 µM CHIP, 37°C; up to
From the text: (§3) For mammalian expression of EGFP, the expression vector pEGFP-N1 from Clontech (Mountain View, CA) was used. N-terminal EGFP-CHIP fusion protein was constructed by cloning human CHIP coding sequence in pEGFP-C2 vector (Clontech) using HindIII and BamHI restriction sites. A fusion between the N-terminalβ−1,4-galactosyltransferase1 and EGFP was used as a marker of the Golgi apparatus, farnesylated EGFP as a marker of plasma membrane (both constructs from Clontech). Untagged and 3xFLAG-tagged human CHIP for mammalian expression were constructed in pCMV-10 vector (Sigma-Aldrich). HSP70 was amplified from human cDNA and cloned into pcDNA3. 1 expression vector without a tag. HSP70 lacking the last amino acid (HSP70ΔD) was prepared by site-directed mutagenesis. Vectors of full-length CHIP, UbcH5a and mutant NQO1 for bacterial expression were prepared as described ([Martínez-Limón et al., 2016]). The TPR domain bacterial expression vector (TPR) was created by exchanging glutamate152 codon to a stop codon in the full-length CHIP vector. CHIP without TPR domain (ΔTPR) was cloned by deleting the sequence between serine25 and argininge130 by means of PCR. […]
as §2
2 mM liposomes were mixed with 2 µM recombinant protein in 50 µl reconstitution buffer. […] The pellet was resuspended in 10 µl reconstitution buffer, resolved by SDS-PAGE and analyzed by CBB staining. Images were acquired with ChemiDoc MP imaging system and quantified using Image Lab 5.0 software (both from Bio-Rad Laboratories). […]

trypsin = experiment: Protease sensitivity assay (trypsin); type: physicochemical; details: 0.5 ng/µl trypsin, 37°C, 20% PA-containing liposomes; no significant difference; N = 3
Protocol: CHIP pelleted with 20% PA-containing liposomes was subjected to 0.5 ng/µl trypsin treatment at 37°C. Hydrolysis was stopped by adding hot reducing SDS sample buffer and boiling for 5 min. Samples were analyzed by SDS-PAGE and CBB staining. For controls without liposomes, protein was used at concentration assuming 30% binding to liposomes. Images were acquired with ChemiDoc MP imaging system and quantified using Image Lab 5.0 software (both from Bio-Rad Laboratories).

[7] = molecular target: T1, C-terminal Hsp70-interacting protein (CHIP), human recombinant full length, wild type, tag-free (human, UniProt Q9UNE7 1-303); experiment: ITC; 10 µM protein in the cell, 200 µM GPTIEEVD peptide in the syringe, 25 injections of 8 µl every 3 min, 37°C, HSP70 buffer (25 mM HEPES KOH pH 7.5, 150 mM KCl, 5 mM MgCl2, 5% glycerol, 1 mM DTT); independent binding model; details: both partners purified
T1 construct: also called WT; wild-type CHIP; source: E. coli BL21, purified (Glutathion Sepharose 4B, PreScission protease, SEC on Superdex 200)
T1 sequence (looked up): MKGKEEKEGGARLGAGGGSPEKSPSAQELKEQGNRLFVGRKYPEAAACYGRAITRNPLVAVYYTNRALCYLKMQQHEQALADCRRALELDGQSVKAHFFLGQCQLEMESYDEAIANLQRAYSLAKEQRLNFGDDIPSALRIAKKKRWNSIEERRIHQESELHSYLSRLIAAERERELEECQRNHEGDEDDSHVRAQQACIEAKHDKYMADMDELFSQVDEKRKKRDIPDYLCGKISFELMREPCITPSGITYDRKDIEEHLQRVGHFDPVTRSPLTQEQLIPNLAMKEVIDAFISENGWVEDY

[8] = Lipid-binding assay, binding of CHIP variants to phospholipids; details: 0.5 µg/ml protein, 1 hr at RT
From the text: as §3
Membrane-immobilized lipids (Membrane lipid strips P-6002 and PIP strips P-6001) were purchased from Echelon Research Laboratories. […] Strips were washed and bound proteins were detected using anti-C-CHIP antibody. […]

Molecule: CCCCCCCCCCCCCCCC(=O)OC[C@H](COP(=O)(O)O)OC(=O)CCCCCCCCCCCCCCC [PA, 1,2-dipalmitoyl-sn-glycero-3-phosphate]
- CHIP binding to phospholipid on lipid array (CHIP [1]): CHIP specificity mainly to phosphatidic acid (PA)
- CHIP cofloatation with DOPC liposomes (CHIP [2]): strongly enhanced
- CHIP association with DOPC-liposomes (pelleting), 5% PA (CHIP [3]; 5% PA, no significant difference): insufficient to strengthen binding of CHIP onto liposomes; also recorded: insufficient to enhance binding of CHIP to DOPC-liposomes
- CHIP association with DOPC-liposomes (pelleting), PA (CHIP [3]; PA-containing liposomes (Figure 2b)): pelleting was increased in the presence of PA; also recorded: strongly

Molecule: C[C@H](CCC(=O)O)[C@H]1CC[C@H]2[C@@H]3CC[C@@H]4C[C@H](O)CC[C@]4(C)[C@H]3C[C@H](O)[C@]12C [deoxycholate, sodium deoxycholate]
- ubiquitin ligase activity of CHIP (CHIP [4]): reversibly inactivate its ubiquitin ligase activity
- monomerization of CHIP (recombinant CHIP): monomerizes CHIP in vitro

Molecule: CHIP: human recombinant full length CHIP, ubiquitin ligase
- ubiquitylation of NQO1 and K63 chain formation while attached to liposomes ([5]; 5 µM CHIP or CHIP pelleted with 20% PA-containing liposomes, UbcH5a or Ubc13/Uev1a): remains capable to ubiquitylate the substrate protein NQO1 and form unattached K63-conjugated chains
- K63-based ubiquitin polymerization on liposomes versus soluble ([5]; Ubc13/Uev1a, 20% PA-containing liposomes): slightly weaker on liposomes
- auto-ubiquitylation on liposomes versus soluble ([5]; UbcH5a, 20% PA-containing liposomes): somewhat stronger on liposomes
- CHIP associated with liposomes, % of input [6]: 50–60%
- sensitivity to proteolysis on liposomes versus in solution (trypsin): does not change its sensitivity to proteolysis

B1: C-terminal HSP70 octapeptide GPTIEEVD (peptide)
peptide: GPTIEEVD
notes: last eight residues of HSP70 (HSPA1A); also called HSP70 peptide; HSP70 C-terminal peptide; source: synthetic peptide (custom-synthetized by GenScript)
- Kd [7]: 5 µM

B2: m2Δ: CHIP with KRKK to AAAA (221–224 aa) (protein, UniProt Q9UNE7 1-303, looked up, variant K221A R222A K223A K224A)
E3 ubiquitin-protein ligase …: T1 sequence (looked up) with K221A, R222A, K223A, K224A
- phospholipid binding of CHIP variant versus wild-type [8]: affects CHIP interaction with phospholipids in vitro

Reference: paper PMC5665643, “CHIP as a membrane-shuttling proteostasis sensor” (eLife, 2017)
